Measured values: patent publication US20080182234A1, “Methods and Compositions for Modulating Adenosine Triphosphate (ATP) in Cells and Preventing Cell Injury or Death via Post-translational Modifications to ATP Synthase” (priority 2001, published 2008)
Entries after “also recorded” stand apart in the source; their conditions may differ.

Assays:
[1] = system: ATP synthase β chain precursor; assay: Two-dimensional gel electrophoresis (silver stain, western blot) of cytoplasmic extract of adenosine-treated isolated myocytes; format: cell-based, rabbit
Method: Ventricular myocytes from New Zealand White rabbits (weighing 1 to 2 kg) were isolated by collagenase dissociation, as described previously by Liu et al. (Circ. Res. 1996 78:443-454). Hearts were excised, then perfused with collagenase (1.0 mg/mL, Worthington type II) for 14 minutes at a maintained perfusion pressure of 75 mm Hg on a Langendorff apparatus, yielding >50% Ca^2+-tolerant ventricular myocytes. Cell isolation was followed directly by pharmacological preconditioning, which was carried out by treatment with 100 μmol/L adenosine (Sigma) for 60 minutes in a 37° C. water bath, as described previously by Liu et al. supra. Untreated cells were prepared concurrently as drug-free controls. Equivalent 25 μL aliquots of cells (containing ˜30 mg/mL of protein as determined by Lowry assay (Lowry, O. H. J. Biol. Chem. 1951 193:265-275) were frozen and stored at −80° C. until analysis. All steps in the “1N Sequence” protein extraction protocol to produce cytoplasmic and myofilament enriched extracts were carried out at 4° C., and all centrifugations were conducted at 16000×g for 2 minutes at 4° C. Myocyte proteins were first extracted by two rounds of homogenization in 100 μL of HEPES extraction buffer, consisting of (in mmol/L) HEPES 25 (pH 7.4), NaF 50, Na3VO4 0.25, phenylmethylsulfonyl fluoride 0.25, EDTA 0.5, and (in μmol/L) leupeptin 1.25, pepstatin A 1.25. […]

[2] = system: isolated myocytes obtained from rabbit hearts; settings: 100 μM adenosine for 60 minutes; cited from earlier work

Nc1ncnc2c1ncn2[C@@H]1O[C@H](CO)[C@@H](O)[C@H]1O [adenosine]
additional, more acidic spots at the molecular weight of intact ATP synthase β chain precursor on 2-D gel (silver stain or western blot) ([1]; isolated rabbit cardiomyocytes, 100 μM adenosine for 60 minutes, cytoplasmic extract, n=4, control had only a single protein spot): Two additional spots
post-translational modifications of ATP synthase β-chain precursor ([1]; isolated rabbit myocytes treated with adenosine for 60 minutes (n=4) versus untreated myocytes): An increase in the post-translational modifications; also recorded: Post-translational modifications to the ATP synthase β-chain precursor were detected
protection against cell death [2]: sufficient to protect against cell death
